Assay results published in article PMC8057092, “Cytotoxic activity of standardized extracts, a fraction, and individual secondary metabolites from fenugreek seeds against SKOV-3, HeLa and MOLT-4 cell lines” (Pharmaceutical Biology, 2021).
Values after ≈ are worked out from the molar mass of the structure shown. “Also recorded” adds a separate entry of the source. Read-outs that look alike come from different tables or passages of the source.

What was measured:
Assay type in all cases: cell-based, human
[1] = test system: SKOV-3, HeLa and MOLT-4 cell lines; test: Cytotoxicity (MTT) on the tested cell lines, stated jointly; details: for cytotoxic activity, in words: NCI guideline: cytotoxic if IC50 under 20–30 μg/mL; for IC50: Homo sapiens, read-out: IC50, tested cell lines
Description: The viability of all the cells was determined by 3-(4,5-dimethylthiazol-2-yl)-2,5-diphenyltetrazolium bromide (MTT) assay. […] The range of concentrations was selected experimentally to obtain symmetrical sigmoidal shape of dose-response curves generated by GraFit v. 7 (Erithacus Software, West Sussex, UK). […] Following treatment, the media with the extracts, fraction and compounds were removed and replaced with fresh media with MTT (0.5 mg/mL). After 3 h of incubation, the absorption of the formazan solution was measured at 570 nm with a plate reader (Epoch, BioTek, Winooski, VT, USA). The results are expressed as IC50 mean values (±SD, standard deviation) of at least two independent experiments, in six repetitions. To determine the cytotoxic selectivity of the extracts, fraction and compounds, the selectivity index (SI) was calculated according to the formula: SI = IC50^(non-cancer cells)/IC50^(cancer cells) (Table 1).

SKOV-3 cells [2] = test: RTCA (xCELLigence) cell proliferation assay, SKOV-3; details: for IC50: Homo sapiens, SK-OV-3, 24 h, read-out: IC50 ± SD, SKOV-3; for IC50 / IC50 ± SD, SKOV-3: RTCA, 24 h; for Selectivity index (SI), SKOV-3: SI = IC50 HaCaT/IC50 SKOV-3, from RTCA results
Description: (§1) The human cervical (HeLa S3) and ovarian (SKOV-3) adenocarcinomas, acute human lymphoblastic leukaemia (MOLT-4) cell lines and human keratinocytes (HaCaT) were obtained from the American Type Culture Collection (ATCC, Manassas, VA, USA). The HeLa and HaCaT cells were cultured in Dulbecco’s Modified Eagle’s Medium (DMEM), SKOV-3 and MOLT-4 cells were cultured in McCoy’s 5 A and RPMI 1640 Media, respectively. All the media were supplemented with 10% (v/v) foetal bovine serum (FBS), 2 mM L-glutamine (except for McCoy’s 5 A), 100 units/mL of penicillin, 100 µg/mL of streptomycin (Sigma-Aldrich), and were kept at 37 °C in a humidified 5% CO2 incubator.
(§2) The xCELLigence Real-Time Cell Analyzer Dual Plate (RTCA DP, ACEA Biosciences, San Diego, CA, USA) was used for monitoring of viability of adherent cells (HeLa, SKOV-3 and HaCaT) treated with the extracts (A, B), fraction C and sapogenins for 24 h. The cells were seeded at a density of 2 × 10^4 cells/well into E-plate 16 (ACEA Biosciences). When the cells entered log phase, the extracts, fraction and steroidal saponins were added in the final concentration range of 5.0–120.0 µg/mL, 5.0–100.0 µg/mL, and 1.0–50.0 µg/mL, respectively. The range of concentrations was selected experimentally to obtain symmetrical sigmoidal shape of dose-response curves generated by RTCA software v. 1.2.1 (ACEA Biosciences). The maximal concentrations of the extract A, fraction and compounds solvents in the RTCA experiments were 4.0% (v/v) for methanol and 0.8% (v/v) for DMSO. To obtain viability profiles and calculate IC50 values, we used the RTCA software v. 1.2.1. All the experiments were performed in duplicate, in three independent repeats.

SKOV-3 cells [3] = test: MTT assay, SKOV-3; details: for IC50: Homo sapiens, read-out: IC50 ± SD, SKOV-3; for Selectivity index (SI), SKOV-3: SI = IC50 HaCaT/IC50 SKOV-3, from MTT results
Description: (§3) The human cervical (HeLa S3) and ovarian (SKOV-3) adenocarcinomas, acute human lymphoblastic leukaemia (MOLT-4) cell lines and human keratinocytes (HaCaT) were obtained from the American Type Culture Collection (ATCC, Manassas, VA, USA). […] All the media were supplemented with 10% (v/v) foetal bovine serum (FBS), 2 mM L-glutamine (except for McCoy’s 5 A), 100 units/mL of penicillin, 100 µg/mL of streptomycin (Sigma-Aldrich), and were kept at 37 °C in a humidified 5% CO2 incubator. The viability of all the cells was determined by 3-(4,5-dimethylthiazol-2-yl)-2,5-diphenyltetrazolium bromide (MTT) assay. […] The range of concentrations was selected experimentally to obtain symmetrical sigmoidal shape of dose-response curves generated by GraFit v. 7 (Erithacus Software, West Sussex, UK). […] Following treatment, the media with the extracts, fraction and compounds were removed and replaced with fresh media with MTT (0.5 mg/mL). After 3 h of incubation, the absorption of the formazan solution was measured at 570 nm with a plate reader (Epoch, BioTek, Winooski, VT, USA). The results are expressed as IC50 mean values (±SD, standard deviation) of at least two independent experiments, in six repetitions.

HeLa cells [4] = test: RTCA (xCELLigence) cell proliferation assay, HeLa; details: for IC50: Homo sapiens, HeLa, read-out: IC50 ± SD, HeLa; for Selectivity index (SI), HeLa: SI = IC50 HaCaT/IC50 HeLa, from RTCA results
Description: as §1, §2

HaCaT cells [5] = test: RTCA (xCELLigence) cell proliferation assay, HaCaT; details: 24 h; for IC50: Homo sapiens, HaCaT, read-out: IC50 ± SD, HaCaT
Description: as §1, §2

HaCaT cells [6] = test: MTT assay, HaCaT keratinocytes; details: 24 h; for IC50: Homo sapiens, HaCaT, read-out: IC50 ± SD, HaCaT
Description: as §3

HeLa cells [7] = test: MTT assay, HeLa; details: for IC50: Homo sapiens, HeLa, read-out: IC50 ± SD, HeLa; for IC50 / IC50 ± SD, HeLa: 24 h; for Selectivity index (SI), HeLa: SI = IC50 HaCaT/IC50 HeLa, from MTT results
Description: as §3

[8] = MTT, stated jointly for the tested cell lines

Row | SMILES | cytotoxic activity, in words ([1]; MTT) | Selectivity index (SI), SKOV-3 (SKOV-3 cells [2]) | IC50 (SKOV-3 cells [3]; SK-OV-3, MTT, 24 h) | Selectivity index (SI), SKOV-3 (SKOV-3 cells [3]) | Selectivity index (SI), HeLa (HeLa cells [4]) | IC50 (HaCaT cells [6]; MTT) | IC50 (HeLa cells [7]; MTT) | Selectivity index (SI), HeLa (HeLa cells [7]) | IC50 ± SD, SKOV-3 (SKOV-3 cells [3]; MTT, 24 h) | IC50, tested cell lines [1, 8] | IC50 ± SD, HaCaT (HaCaT cells [6]; MTT) | IC50 ± SD, HeLa (HeLa cells [7]; MTT) | further results
1 | C[C@@H]1CC[C@@]2(OC1)O[C@H]1C[C@H]3[C@@H]4CC=C5C[C@@H](O)CC[C@]5(C)[C@H]4CC[C@]3(C)[C@H]1[C@@H]2C [Diosgenin] | cytotoxic; also recorded: active | 1.38 | 19.3 ± 0.97 µg/mL (≈ 46.5 µM) | 0.64 | 0.84 | 12.4 ± 0.5 µg/mL (≈ 29.9 µM) | 16.3 ± 0.26 µg/mL (≈ 39.3 µM) | 0.76 | – | – | – | – | IC50 (SKOV-3 cells [2]): ~20 µg/mL (≈ 48.2 µM); IC50 ± SD, SKOV-3 (SKOV-3 cells [2]): 16.90 ± 2.89 µg/mL (≈ 40.8 µM); IC50 (HeLa cells [4]; RTCA, 24 h): 28 ± 2.4 µg/mL (≈ 67.5 µM); IC50 (HaCaT cells [5]): 23.4 ± 0.42 µg/mL (≈ 56.4 µM)
2 | O=c1cc(-c2ccc(O)c(O)c2)oc2cc(O)c([C@@H]3O[C@H](CO)[C@@H](O)[C@H](O)[C@H]3O)c(O)c12 [Isoorientin] | inactive | – | > 50 µg/mL | – | – | > 50 µg/mL | > 50 µg/mL | – | – | – | – | – | IC50 [1, 8]: > 50 µg/mL
3 | O=c1cc(-c2ccc(O)c(O)c2)oc2c([C@@H]3O[C@H](CO)[C@@H](O)[C@H](O)[C@H]3O)c(O)cc(O)c12 [Orientin] | inactive | – | – | – | – | – | – | – | – | – | – | – | IC50 [1]: > 50 µg/mL; IC50 (SKOV-3 cells [3]; SK-OV-3, 24 h): > 50 µg/mL; IC50 (HaCaT cells [6]): > 50 µg/mL; IC50 (HeLa cells [7]): > 50 µg/mL
4 | C[C@@H]1CC[C@@]2(OC1)O[C@H]1C[C@H]3[C@@H]4CC[C@H]5C[C@@H](O)CC[C@]5(C)[C@H]4CC[C@]3(C)[C@H]1[C@@H]2C [Tigogenin] | active | 1.16 | > 50 µg/mL | < 0.62 | 1.30 | 31.1 ± 2.31 µg/mL (≈ 74.6 µM) | 35.6 ± 3.69 µg/mL (≈ 85.4 µM) | 0.87 | lowest activity | – | – | – | IC50 (SKOV-3 cells [2]): 28.3 ± 3.46 µg/mL (≈ 67.9 µM); IC50 (HeLa cells [4]; RTCA, 24 h): 25.1 ± 0.12 µg/mL (≈ 60.2 µM); IC50 (HaCaT cells [5]): 32.7 ± 0.07 µg/mL (≈ 78.5 µM)
5 | C[n+]1cccc(C(=O)[O-])c1 [Trigonelline] | – | – | > 50 µg/mL | – | – | > 50 µg/mL | > 50 µg/mL | – | – | – | – | – | IC50 [1, 8]: > 50 µg/mL
6 | O=c1cc(-c2ccc(O)cc2)oc2c([C@@H]3O[C@H](CO)[C@@H](O)[C@H](O)[C@H]3O)c(O)c([C@@H]3OC[C@@H](O)[C@H](O)[C@H]3O)c(O)c12 [Vicenin-1] | – | – | – | – | – | – | – | – | >50 µg/mL | > 50 µg/mL | >50 µg/mL | >50 µg/mL | –
7 | O=c1cc(-c2ccc(O)cc2)oc2c([C@@H]3O[C@H](CO)[C@@H](O)[C@H](O)[C@H]3O)c(O)c([C@@H]3O[C@H](CO)[C@@H](O)[C@H](O)[C@H]3O)c(O)c12 [Vicenin-2] | inactive | – | – | – | – | – | – | – | >50 µg/mL | > 50 µg/mL | >50 µg/mL | >50 µg/mL | –
8 | O=c1cc(-c2ccc(O)cc2)oc2c([C@@H]3OC[C@@H](O)[C@H](O)[C@H]3O)c(O)c([C@@H]3O[C@H](CO)[C@@H](O)[C@H](O)[C@H]3O)c(O)c12 [Vicenin-3] | inactive | – | – | – | – | – | – | – | >50 µg/mL | > 50 µg/mL | >50 µg/mL | >50 µg/mL | –
9 | O=c1cc(-c2ccc(O)cc2)oc2c([C@@H]3O[C@H](CO)[C@@H](O)[C@H](O)[C@H]3O)c(O)cc(O)c12 [Vitexin] | inactive | – | – | – | – | – | – | – | – | – | – | – | IC50 [1]: > 50 µg/mL; IC50 (SKOV-3 cells [3]; SK-OV-3, 24 h): > 50 µg/mL; IC50 (HaCaT cells [6]): > 50 µg/mL
10 | C[C@H]1CC[C@@]2(OC1)O[C@H]1C[C@H]3[C@@H]4CC=C5C[C@@H](O)CC[C@]5(C)[C@H]4CC[C@]3(C)[C@H]1[C@@H]2C [Yamogenin] | cytotoxic; also recorded: active | 0.69 | – | 0.58 | 0.84 | – | – | 0.59 | 16.70 ± 0.08 µg/mL (≈ 40.3 µM) | – | 9.70 ± 0.91 µg/mL (≈ 23.4 µM) | 16.5 ± 0.59 µg/mL (≈ 39.8 µM) | IC50 ± SD, SKOV-3 (SKOV-3 cells [2]): 23.90 ± 1.48 µg/mL (≈ 57.6 µM); IC50 ± SD, SKOV-3 (SKOV-3 cells [2]; listed as yamogenin): about 20 μg/mL; IC50 ± SD, HeLa (HeLa cells [4]; RTCA, 24 h): 19.60 ± 1.41 µg/mL (≈ 47.3 µM); IC50 ± SD, HaCaT (HaCaT cells [5]): 16.40 ± 1.41 µg/mL (≈ 39.6 µM)
